Experimental findings from US20250360113A1, “ADMINISTRATION OF DHB TO INCREASE BENEFIT OF LOSING WEIGHT OF INTERMITTENT FASTING” (NANJING NUTRABUILDING BIO-TECH CO., LTD., priority 2023, published 2025) are described below.

This assay can be described thus: Oral glucose tolerance test (OGTT). The note with it: HFD obese mice. It counts as in vivo, C57BL/6 male mice. The protocol:
50 C57BL/6 male mice aged about 8 weeks, are randomly assigned to five study groups (GA, GB1, GB2, GB3, GB4) of ten mice each (one cage, n=5 per condition). Mice were maintained in a pathogen free condition under a strict 12 h light/dark cycle (0600/1800 h) with 12-15 cycles/hour of air change. Mice were provided with access to respective feed and water ad libitum as per experimental conditions. Mice were housed under controlled laboratory conditions of temperature and humidity at 23±2° C. and 50±10% RH, respectively. Each study group consisted of ten animals, and treatment details of the individual study groups are given below: • Group A (GA, NC): Normal mice, maintained on normal diet (standard chow, 12% calories from fat; 23% calories from protein and 65% calories from carbohydrates) for 8 weeks, receiving neither EODF nor DHB treatment. • Group B1 (GB1): Obese mice, maintained on high fat diet (HFD, 60% calories from fat, 20% calories from protein, 20% calories from carbohydrate) for 8 weeks, receiving neither EODF nor DHB treatment. • Group B2 (GB2): Obese mice, maintained on HFD for 8 weeks, receiving only EODF and no DHB treatment. • Group B3 (GB3): Obese mice, maintained on HFD for 8 weeks, receiving only DHB treatment and no EODF. • Group B4 (GB4): Obese mice, maintained on HFD for 8 weeks, receiving DHB treatment and EODF combination. DHB was administered daily via intragastric injection (i.g.) according to a level of 70 mg/kg body weight. Mice not receiving DHB were given orally with ultrapure water. Oral glucose tolerance test (OGTT): To measure glucose levels in blood, GTT were implemented in the mice (NC and HFD groups) after overnight by using a glucose analyzer. The glucose concentrations were measured in blood collected by venous bleeding from the tail vein immediately at 0, 15, 30, 60 and 120 min after administered glucose at 2 g/kg orally. Towards the end of the final week of the study, GTT was also performed for all mice (NC and HFD groups).

The mark [1] stands for this setting: DHB + EODF combination vs EODF only.

Regarding `COc1ccc2c(c1OC)CN1CCc3cc4c(cc3C1=C2)OCO4` [DHB, Dihydroberberine], for the setting “DHB 70 mg/kg i.g. daily vs no DHB with and without EODF, FIGS. 11-14”, the blood glucose levels entry was “greater reduction”. Under setting [1], the “improving the glucose tolerance” value is “greater effects” and the “reducing the blood glucose levels” value is recorded as “greater effects”. Further, under “glucose 2 g/kg orally, DHB vs no DHB with and without EODF”, the glucose tolerance entry was “better”.
